One block for each compound: values may come before it.
Legend:
CYP3A4 [1] = molecular target: T1, CYP3A4 (Homo sapiens, UniProt P08684); assay: Ratio of Kinact to Ki for CYP3A4 (unknown origin); format: ADME
Cytochrome P450 3A4 [2] = molecular target: T2, Cytochrome P450 3A4 (Homo sapiens, UniProt P08684); assay: Inhibition of human His-tagged CYP3A4 expressed in Escherichia coli TOPP3 using BFC as substrate assessed as unmodified heme at 100 uM after 30 mins by HPLC analysis in presence of NADPH and cytochrome b5; format: ADME; conditions: 0.5 h
Cytochrome P450 2B6 [3] = molecular target: T3, Cytochrome P450 2B6 (Homo sapiens, UniProt P20813); assay: Inhibition of human His-tagged CYP2B6 expressed in Escherichia coli TOPP3 using 7-ethoxy-4-(trifluoromethyl)coumarin as substrate after 15 mins by fluorescence assay in presence of NADPH; format: ADME; conditions: 0.25 h
T3 sequence (P20813 whole entry): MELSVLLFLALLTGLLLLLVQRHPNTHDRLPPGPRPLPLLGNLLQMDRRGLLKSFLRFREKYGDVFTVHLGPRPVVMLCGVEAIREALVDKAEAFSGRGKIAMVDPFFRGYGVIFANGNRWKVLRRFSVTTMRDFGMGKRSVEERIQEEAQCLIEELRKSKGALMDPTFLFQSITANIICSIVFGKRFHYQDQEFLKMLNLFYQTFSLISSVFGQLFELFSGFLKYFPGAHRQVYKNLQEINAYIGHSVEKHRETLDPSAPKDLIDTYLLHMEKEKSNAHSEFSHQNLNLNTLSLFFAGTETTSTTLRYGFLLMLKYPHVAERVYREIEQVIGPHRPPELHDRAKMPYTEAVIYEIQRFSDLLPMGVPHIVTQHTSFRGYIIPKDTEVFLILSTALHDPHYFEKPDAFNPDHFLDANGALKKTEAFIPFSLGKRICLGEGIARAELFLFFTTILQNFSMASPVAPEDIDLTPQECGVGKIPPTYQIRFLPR

CYP3A5 [4] = molecular target: T4, CYP3A5 (Homo sapiens, UniProt P20815); assay: Inhibition of human His-tagged CYP3A5 expressed in Escherichia coli TOPP3 using BFC as substrate assessed as residual activity after 20 mins by fluorescence assay in presence of NADPH and cytochrome b5 relative to control; format: ADME; conditions: probe BFC, read-out: Activity
CYP3A4 [5] = molecular target: T1, CYP3A4; assay: Inhibition of human His-tagged CYP3A4 expressed in Escherichia coli TOPP3 using BFC as substrate assessed as residual activity after 30 mins by fluorescence assay in presence of NADPH and cytochrome b5 relative to control; format: ADME; conditions: probe BFC, read-out: Activity
Cytochrome P450 3A5 [6] = molecular target: T5, Cytochrome P450 3A5 (Homo sapiens, UniProt P20815); assay: Inhibition of human His-tagged CYP3A5 expressed in Escherichia coli TOPP3 using BFC as substrate after 15 mins by fluorescence assay in presence of NADPH and cytochrome b5; format: ADME; conditions: 0.25 h
Cytochrome P450 3A4 [7] = molecular target: T2, Cytochrome P450 3A4; assay: Inhibition of His-tagged CYP3A4 (unknown origin) expressed in Escherichia coli TOPP3 using BFC as substrate after 15 mins by fluorescence assay in presence of NADPH and cytochrome b5; format: ADME; conditions: 0.25 h
Cytochrome P450 2B6 [8] = molecular target: T3, Cytochrome P450 2B6; assay: Inhibition of human His-tagged CYP2B6 expressed in Escherichia coli TOPP3 using 7-ethoxy-4-(trifluoromethyl)coumarin as substrate after 15 mins by fluorescence assay in presence of NADPH and cytochrome b5; format: ADME; conditions: 0.25 h
Cytochrome P450 2D6 [9] = molecular target: T6, Cytochrome P450 2D6 (Homo sapiens, UniProt P10635); assay: Inhibition of human His-tagged CYP2D6 expressed in Escherichia coli TOPP3 using 7-ethoxy-4-(trifluoromethyl)coumarin as substrate after 15 mins by fluorescence assay in presence of NADPH and cytochrome b5; format: ADME; conditions: 0.25 h
CYP3A5 [10] = molecular target: T4, CYP3A5; assay: Inhibition of human His-tagged CYP3A5 expressed in Escherichia coli TOPP3 using BFC as substrate assessed as residual activity after 30 mins by fluorescence assay in presence of NADPH and cytochrome b5 relative to control; format: ADME; conditions: probe BFC, read-out: Activity
Cytochrome P450 3A4 [11] = molecular target: T2, Cytochrome P450 3A4; assay: Inhibition of human His-tagged CYP3A4 expressed in Escherichia coli TOPP3 using BFC as substrate at 100 uM after 30 mins by spectrophotometry in presence of cytochrome b5; format: ADME; conditions: 0.5 h
CYP3A4 [12] = molecular target: T1, CYP3A4; assay: Inhibition of human His-tagged CYP3A4 expressed in Escherichia coli TOPP3 using BFC as substrate assessed as residual activity after 10 mins by fluorescence assay in presence of NADPH and cytochrome b5 relative to control; format: ADME; conditions: probe BFC, read-out: Activity
CYP3A4 [13] = molecular target: T1, CYP3A4; assay: Inhibition of human His-tagged CYP3A4 expressed in Escherichia coli TOPP3 using BFC as substrate at 100 uM after 30 mins in presence of NADPH and cytochrome b5; format: ADME; conditions: probe BFC
CYP3A4 [14] = molecular target: T1, CYP3A4; assay: Inhibition of human His-tagged CYP3A4 expressed in Escherichia coli TOPP3 using BFC as substrate assessed as residual activity by fluorescence assay in presence of cytochrome b5; format: ADME; conditions: probe BFC
Cytochrome P450 3A4 [15] = molecular target: T2, Cytochrome P450 3A4; assay: Inhibition of human His-tagged CYP3A4 expressed in Escherichia coli TOPP3 using BFC as substrate at 10 to 100 uM by fluorescence assay in presence of NADPH and cytochrome b5; format: ADME; conditions: TDE = time-dependent effect
[16] = Cmax in human; format: ADME, organism-based; conditions: in vivo
CYP3A5 [17] = molecular target: T4, CYP3A5; assay: Inhibition of human His-tagged CYP3A5 expressed in Escherichia coli TOPP3 using BFC as substrate assessed as residual activity after 10 mins by fluorescence assay in presence of NADPH and cytochrome b5 relative to control; format: ADME; conditions: probe BFC, read-out: Activity
Cytochrome P450 3A5 [18] = molecular target: T5, Cytochrome P450 3A5; assay: Inhibition of human His-tagged CYP3A5 expressed in Escherichia coli TOPP3 using BFC as substrate after 15 mins by fluorescence assay in presence of NADPH; format: ADME; conditions: 0.25 h
CYP3A4 [19] = molecular target: T1, CYP3A4; assay: Inhibition of human His-tagged CYP3A4 expressed in Escherichia coli TOPP3 using BFC as substrate assessed as residual activity after 20 mins by fluorescence assay in presence of NADPH and cytochrome b5 relative to control; format: ADME; conditions: probe BFC, read-out: Activity
Cytochrome P450 3A4 [20] = molecular target: T2, Cytochrome P450 3A4; assay: Inhibition of human His-tagged CYP3A4 expressed in Escherichia coli TOPP3 using BFC as substrate after 15 mins by fluorescence assay in presence of NADPH and cytochrome b5; format: ADME; conditions: 0.25 h
CYP3A4 [21] = molecular target: T1, CYP3A4; assay: Inhibition of human His-tagged CYP3A4 expressed in Escherichia coli TOPP3 using BFC as substrate at 100 uM after 30 mins by spectrophotometry in presence of NADPH and cytochrome b5 relative to control; format: ADME; conditions: probe BFC
CYP3A5 [22] = molecular target: T4, CYP3A5; assay: Inhibition of human His-tagged CYP3A5 expressed in Escherichia coli TOPP3 using BFC as substrate assessed as residual activity by fluorescence assay in presence of cytochrome b5; format: ADME; conditions: probe BFC
Cytochrome P450 2D6 [23] = molecular target: T6, Cytochrome P450 2D6; assay: Inhibition of human His-tagged CYP2D6 expressed in Escherichia coli TOPP3 using 7-ethoxy-4-(trifluoromethyl)coumarin as substrate after 15 mins by fluorescence assay in presence of NADPH; format: ADME; conditions: 0.25 h
Cytochrome P450 3A4 [24] = molecular target: T2, Cytochrome P450 3A4; assay: Inhibition of His-tagged CYP3A4 (unknown origin) expressed in Escherichia coli TOPP3 using BFC as substrate after 15 mins by fluorescence assay in presence of NADPH; format: ADME; conditions: 0.25 h

T4 sequence (P20815 whole entry): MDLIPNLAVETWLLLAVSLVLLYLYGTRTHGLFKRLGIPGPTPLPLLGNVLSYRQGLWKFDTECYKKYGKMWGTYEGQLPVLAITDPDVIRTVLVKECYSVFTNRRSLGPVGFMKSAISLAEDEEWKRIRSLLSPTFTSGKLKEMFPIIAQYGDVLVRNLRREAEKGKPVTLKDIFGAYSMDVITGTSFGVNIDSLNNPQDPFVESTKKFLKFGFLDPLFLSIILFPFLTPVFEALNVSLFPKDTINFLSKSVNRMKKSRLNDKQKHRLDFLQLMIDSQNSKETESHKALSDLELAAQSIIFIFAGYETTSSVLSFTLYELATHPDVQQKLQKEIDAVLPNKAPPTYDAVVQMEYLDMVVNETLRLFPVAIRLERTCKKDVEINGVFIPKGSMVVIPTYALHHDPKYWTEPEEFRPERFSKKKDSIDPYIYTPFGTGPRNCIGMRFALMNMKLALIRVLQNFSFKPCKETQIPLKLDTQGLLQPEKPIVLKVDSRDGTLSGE
T1 sequence (P08684 whole entry): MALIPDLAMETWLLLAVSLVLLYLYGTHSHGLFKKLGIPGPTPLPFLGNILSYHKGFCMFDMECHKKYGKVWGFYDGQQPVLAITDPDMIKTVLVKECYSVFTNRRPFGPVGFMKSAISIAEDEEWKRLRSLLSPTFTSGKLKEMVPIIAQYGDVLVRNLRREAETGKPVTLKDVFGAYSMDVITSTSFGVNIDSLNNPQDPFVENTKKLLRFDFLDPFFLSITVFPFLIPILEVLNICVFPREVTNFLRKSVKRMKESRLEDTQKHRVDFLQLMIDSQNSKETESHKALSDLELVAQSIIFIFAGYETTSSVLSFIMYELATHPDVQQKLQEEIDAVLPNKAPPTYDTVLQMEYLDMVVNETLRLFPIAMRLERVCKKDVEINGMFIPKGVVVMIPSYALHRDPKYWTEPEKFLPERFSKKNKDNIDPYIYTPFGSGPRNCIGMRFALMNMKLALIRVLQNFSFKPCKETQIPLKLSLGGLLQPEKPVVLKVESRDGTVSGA
T2 sequence (P08684 whole entry): as above
T6 sequence (P10635 whole entry): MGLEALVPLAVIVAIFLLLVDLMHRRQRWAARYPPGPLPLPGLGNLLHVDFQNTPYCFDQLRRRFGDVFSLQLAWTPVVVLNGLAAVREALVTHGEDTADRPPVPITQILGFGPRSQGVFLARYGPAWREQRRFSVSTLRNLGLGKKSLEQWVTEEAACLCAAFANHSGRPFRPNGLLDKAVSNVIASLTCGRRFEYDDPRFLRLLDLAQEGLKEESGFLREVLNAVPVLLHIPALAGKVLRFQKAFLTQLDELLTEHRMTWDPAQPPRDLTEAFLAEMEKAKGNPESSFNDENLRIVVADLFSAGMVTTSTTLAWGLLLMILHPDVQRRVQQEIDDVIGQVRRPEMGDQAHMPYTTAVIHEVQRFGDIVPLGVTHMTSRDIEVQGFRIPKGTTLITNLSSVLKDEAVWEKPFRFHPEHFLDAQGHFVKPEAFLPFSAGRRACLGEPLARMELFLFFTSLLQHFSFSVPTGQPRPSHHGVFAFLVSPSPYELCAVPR
T5 sequence (P20815 whole entry): as the sequence (P20815 whole entry) above

SMILES: C#C[C@]1(O)CC[C@H]2[C@@H]3CCc4cc(O)ccc4[C@H]3CC[C@@]21C [ETHINYL ESTRADIOL]
- kinact/KI (CYP3A4 [1]): 667 M⁻¹ s⁻¹

SMILES: CC/C(=C(\c1ccccc1)c1ccc(OCCN(C)C)cc1)c1ccccc1 [TAMOXIFEN]
- kinact/KI (CYP3A4 [1]): 333 M⁻¹ s⁻¹

SMILES: O=C(Nc1ccc(OC(F)(F)F)cc1)c1sccc1NCc1ccnc2ccccc12 [OSI-930]
- inhibition (INH) (Cytochrome P450 3A4 [2]): Active
- inhibition (INH) (Cytochrome P450 2B6 [3]): Not Active
- activity at 20 min (CYP3A5 [4]): 109%
- activity at 0.5 h (CYP3A4 [5]): 39%
- inhibition (INH) (Cytochrome P450 3A5 [6]): Not Active
- inhibition (INH) (Cytochrome P450 3A4 [7]): Active
- inhibition (INH) (Cytochrome P450 2B6 [8]): Not Active
- inhibition (INH) (Cytochrome P450 2D6 [9]): Not Active
- activity at 0.5 h (CYP3A5 [10]): 98%
- inhibition (INH) (Cytochrome P450 3A4 [11]): Not Active
- activity at 10 min (CYP3A4 [12]): 71%
- inhibition at 0.5 h, 100 µM (CYP3A4 [13]): 75%
- activity (CYP3A4 [14]): 100%
- inhibition (INH) (Cytochrome P450 3A4 [15]): tde
- Cmax [16]: 1700 nM
- activity at 10 min (CYP3A5 [17]): 113%
- inhibition (INH) (Cytochrome P450 3A5 [18]): Not Active
- activity at 20 min (CYP3A4 [19]): 50%
- inhibition (INH) (Cytochrome P450 3A4 [20]): Dose-dependent effect
- inhibition at 0.5 h, 100 µM (CYP3A4 [21]): 70%
- activity (CYP3A5 [22]): 100%
- inhibition (INH) (Cytochrome P450 2D6 [23]): Not Active
- inhibition (INH) (Cytochrome P450 3A4 [24]): Active

Next, values leading:

- kinact/KI (CYP3A4 [1]): 333 M⁻¹ s⁻¹
SMILES: CC#C[C@]1(O)CC[C@H]2[C@@H]3CCC4=CC(=O)CCC4=C3[C@@H](c3ccc(N(C)C)cc3)C[C@@]21C [MIFEPRISTONE]

- kinact/KI (CYP3A4 [1]): 667 M⁻¹ s⁻¹
SMILES: CC(C)=CCC/C(C)=C/COc1c2ccoc2cc2oc(=O)ccc12 [BERGAMOTTIN]

Reference: ChEMBL document CHEMBL3525969 (Drug Metab Dispos, 2011)
